# Source: patent publication US10590422B2, “Anticancer therapeutic intervention” (PHYZAT BIOPHARMACEUTICALS, LDA., priority 2017, dated 2020)
# Assays:
# [1] = tested on: human colon cancer HTC-116 cells; test: Cell proliferation assay (calcein-AM) in human colon cancer HTC-116 cells; format: cell-based; conditions: for Decrease in cell proliferation greater the higher the concentration of Injectin in the siRNA:Injectin complexes: Injectin 0.037% to 0.15%; for cell proliferation / proliferation: treatment 6 h; for proliferation: at 72 h, 0.17% Lipofectamine 2000 or 0.1% Injectin, FIGS. 19B and 20B
# Description: SK-HEP-1, T24, HT-1080 and HCT-116 cell lines were maintained in a humidified atmosphere of 5% CO2 at 37° C. SK-HEP-1 cells were grown in RPMI-1640 (Sigma, St. Louis, Mo.) supplemented with 20% fetal bovine serum (FBS) (Gibco, UK), 100 U/mL penicillin G, 0.25 μg/mL amphotericin B, 100 μg/mL streptomycin (Gibco, UK), 25 mM sodium bicarbonate (Merck, Germany) and 25 mM N-2-hydroxyethylpiperazine-N′-2-ethanosulfonic acid (HEPES) (Sigma, St. Louis, Mo.). T24 and HT-1080 cells were grown, respectively, in Dulbecco's Modified Eagle's Medium (DMEM)—high glucose (Sigma, St. Louis, Mo.) and DMEM—low glucose (Sigma, St. Louis, Mo.), supplemented with 10% FBS (Gibco, UK), 100 U/mL penicillin G, 0.25 μg/mL amphotericin B, 100 μg/mL streptomycin (Gibco, UK), 25 mM sodium bicarbonate (Merck, Germany) and 25 mM HEPES (Sigma, St. Louis, Mo.). HCT-116 cells were grown in McCoy's 5A (Sigma, St. Louis, Mo.) supplemented with 10% FBS (Gibco, UK), 100 U/mL penicillin G, 0.25 μg/mL amphotericin B, 100 μg/mL streptomycin (Gibco, UK), 25 mM sodium bicarbonate (Merck, Germany) and 25 mM HEPES (Sigma, St. Louis, Mo.). For all cell lines the medium was changed every 2 days, and cells reached confluence 3-4 days after initial seeding. For subculturing, cells were dissociated with 0.25% trypsin-ethylenediaminetetraacetic acid (EDTA) (Sigma, St. Louis, Mo.), split 1:15 or 1:20 and subcultured in a 21-cm^2 growth area (Sarstedt, Germany).
# Cell proliferation was measured using calcein-AM (Thermo Fisher Scientific, USA). The membrane permeant calcein-AM, a nonfluorescent dye, is taken up and converted by intracellular esterases to membrane impermeant calcein, which emits green fluorescence. Cells were plated in 96-well plates with black walls clear bottom (BD Biosciences, USA) and incubated 24 h under normal growth conditions. Cells were incubated with test items at 37° C., 5% C02. After the incubation period, serum and antibiotic was restored and cells were further incubated at normal conditions during 72 h. After treatment with test substances or vehicle, cells were washed twice with Hanks' medium and loaded with 2 μM calcein-AM in Hanks' medium, at 37° C. for 30 min. Fluorescence was measured at 485 nm excitation and 530 nm emission wavelengths in a microplate spectrofluorometer (Gemini EM, Molecular Devices). Nine consecutive fluorescence measurements are performed per well, to allow fluorescence readings in the whole area of the well, which was then considered for the calculation of mean fluorescence per well. To determine minimum staining for calcein (calceinmin), eight wells were treated with ethanol 30 min before calcein-AM addition. The percent cell number is calculated as [(calceinsample)/(calceincontrol)]×100.
# [2] = tested on: human colon cancer HTC-116 cells xenograft tumour; test: Xenograft tumour model, relative tumour volume, intratumoral injections; format: in vivo, NMRI nu/nu mice; conditions: immune deficient mice, subcutaneous HTC-116; 10 μg intratumoral (50 μL) every other day; versus vehicle (Injectin); FIG. 23
# Description: Human colon cancer HTC-116 cells grown in tissue culture and 10^7 cells per mouse were injected into the hind flank of female NMRI nu/nu mice. Once tumours have developed and tumour volumes reached randomisation criteria, therapy will commence by every other day […], intra-tumoral injections. A vehicle treated group was included in the study as control. Female immunodeficient NMRI nu/nu mice from Charles River were used. The animals were delivered at the age of 4-6 weeks and are used for implantation after at least 1 week of quarantine. […] During the experiments, animals were monitored at least daily. […]
# The tumour volume was determined by a two-dimensional measurement with callipers on the day of randomization (Day 0) and then twice weekly. Tumour volumes were calculated according to the following equation: Tumour Vol [mm^3]=a [mm]×b^2 [mm^2]×0.5 […]
# The relative volume of an individual tumour on day X (RTVx) was calculated by dividing the absolute volume [mm^3] of the respective tumour on day X (Tx) by the absolute volume of the same tumour on the day of randomization, i. e. on day 0 (T0), multiplied by 100, as shown by the following equation: […]
# Group median and range (alternatively geometric mean+/−SEM) of RTVs were calculated, considering only the tumours of animals that were alive on the day in question (for median). […]
# [3] = 72 h exposure, 0.1% Injectin, FIG. 14
# [4] = 72 h exposure, increasing Injectin (0.037% to 0.15%), FIG. 15
Substance,"Enhancement of effects of 5-fluoruracil compared with SEQ ID NO: 267/397/398 ([1]; 5-FU 10 μM, 72 h, FIG. 17B)","Decrease in cell proliferation greater the higher the concentration of Injectin in the siRNA:Injectin complexes ([1]; 72 h, FIG. 15)","Effect of siRNA-LAT1 SEQ ID NO: 58/387/388 upon proliferation in combination with the siRNA-ASCT2 ([1]; 72 h, siRNA-ASCT2 at non-efficacious conditions (0.037% Injectin), FIG. 18)","cell proliferation [1, 3]","cell proliferation [1, 4]",proliferation [1],reduction in relative tumour volume [2],"proliferation (siRNA-LAT1 alone) ([1]; 25 nM, 72 h exposure, Injectin, FIG. 18A)","Effect of 5-fluoruracil upon proliferation in combination with the siRNA ([1]; 5-FU 10 μM, siRNA 25 nM, 72 h, 0.037% Injectin, FIG. 17A)","Effect of 5-fluoruracil upon proliferation in combination with the siRNA ([1]; 5-FU 3 and 10 μM, siRNA 5 and 25 nM, concentration dependent, 72 h, 0.25% Lipofectamine 2000, FIG. 16)","Effect of cisplatin upon proliferation in combination with the siRNA ([1]; Cisp 3 and 10 μM, siRNA 5 and 25 nM, concentration dependent, 72 h, 0.25% Lipofectamine 2000, FIG. 16)","Effect of oxaliplatin upon proliferation in combination with the siRNA ([1]; Oxa 1 and 3 μM, siRNA 5 and 25 nM, concentration dependent, 72 h, 0.25% Lipofectamine 2000, FIG. 16)"
278/403/404 (sense UGCCACGGUCGCCUCUGAGAATT; antisense UUCUCAGAGGCGACCGUGGCATT; siRNA; sugars by position and backbone not given here; further chemistry not fully specified),more marked,particularly evident,enhanced,decreased,decreased,significantly decreased,statistically significant,–,–,–,–,–
58/387/388 (sense CUUCGCCACCUACCUGCUCAATT; antisense UUGAGCAGGUAGGUGGCGAAGTT; siRNA; sugars by position and backbone not given here; further chemistry not fully specified),–,particularly evident,–,decreased,decreased,significantly decreased,statistically significant,significant decrease,enhanced,significantly enhanced,significantly enhanced,significantly enhanced
